Assay results: US9718771B2, “Aniline derivative, pharmaceutical composition containing same, and use thereof” (Kissei Pharmaceutical Co., Ltd., priority 2014, dated 2017)

Assays:
[1] = test system: blood lymphocytes; test: Confirmation test for reduction effects on the number of lymphocytes; type: in vivo, Male Sprague-Dawley rats; conditions: rat, oral; for Number of lymphocytes (% of Vehicle) After 6 hours: 6 hours after administration; for Number of lymphocytes (% of Vehicle) After 24 hours: 24 hours after administration; for Number of lymphocytes (% of Vehicle) After 48 hours: 48 hours after administration
Method: Confirmation Test for Reduction Effects on the Number of Lymphocytes
Reduction effects on the number of blood lymphocytes by test compounds were confirmed using Male Sprague-Dawley rats (Japan SLC, 7-weeks-old in use). Administration solutions for test compounds were prepared on hot-plate at 50° C. After test compounds were dissolved by DMSO (dimethyl sulfoxide, Wako Pure Chemicals) of 1/10 volume of the total volume, WellSolve (Celeste) of 1/10 volume of the total volume was added to this solution. Further, distilled water (Otsuka Pharmaceutical Factory) of 8/10 volume of the total volume was added to this solution, and the administration solutions for test compounds were prepared. A solution, prepared in the same volume ratios of DMSO. WellSolve and distilled water as the administration solution for test compounds, was used as a solvent (Vehicle). Vehicle or test compound was administered orally to rats at 1 mL/body. After 6, 24 and 48 hours from administration of vehicle or test compounds, rats were held on the board at supine position under inhalation anesthesia with isoflurane (Abbott Japan). Blood samples (200 to 250 μL) were collected from the cervical vein of this rat using 1 mL syringes with needles of 25G. The collected blood samples were transferred to a microtube treated with EDTA-2K (Japan Becton Dickinson), and stored at room temperature after gently mixing with inversion. The number of lymphocytes was measured by ADVIA (registered mark) (Bayer), which is a multi-parameter automated blood cell counter using this blood samples. The average number of lymphocytes in vehicle-treated group (vehicle group) was defined as 100%, and the average number of lymphocytes in each test compound-treated group was calculated as % of vehicle. As Comparative Example 2, 1-{5-[1-(4-chloro-3-methyl-phenyl)-propylamino]-2-methyl-benzyl}-azetidine-3-carboxylic acid (patent literature 1, Example 4) was evaluated as well.

[2] = target: human S1P1 (EDG-1) (Homo sapiens (Human), UniProt P21453); test: Confirmation test of antagonistic activity for human S1P1 receptor (35S-GTP binding, cell membranes); type: biochemical; conditions: inhibition of 35S-GTP binding induced by S1P1 receptor selective agonist; HEK293 membranes expressing human S1P1
human S1P1 (EDG-1), sequence (P21453 whole entry): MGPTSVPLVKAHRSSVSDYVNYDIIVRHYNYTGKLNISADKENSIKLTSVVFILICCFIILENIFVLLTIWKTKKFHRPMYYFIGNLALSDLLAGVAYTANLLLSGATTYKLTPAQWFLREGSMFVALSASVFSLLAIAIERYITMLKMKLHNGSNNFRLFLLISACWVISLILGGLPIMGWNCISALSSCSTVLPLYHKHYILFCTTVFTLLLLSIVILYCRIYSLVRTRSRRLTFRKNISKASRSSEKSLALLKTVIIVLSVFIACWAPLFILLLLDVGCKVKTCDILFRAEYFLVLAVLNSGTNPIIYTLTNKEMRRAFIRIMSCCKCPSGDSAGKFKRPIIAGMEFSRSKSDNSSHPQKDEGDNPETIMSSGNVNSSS
Method: Confirmation Test of Antagonistic Activity for Human S1P1 Receptor
Test compounds were tested by reduction of functional binding activity of ^35S-GTP (guanosine 5′-O-[gamma-thio] triphosphate, PerkinElmer) to G protein using cell membranes expressing human S1P1 (EDG-1). S1P1-pcDNA3.1/V5-His-Topo vector was prepared by inserting cDNA (NM_001400) encoding human S1P1 into the expression vector, pcDNA3.1/V5-His-Topo (registered trademark) (Invitrogen). Next, the above S1P1-pcDNA3.1 vector was transfected into HEK293 cells by Lipofectamine2000 (registered trademark) (Invitrogen). The transfected cells were incubated with D-MEM liquid medium each containing 10% FBS (Fetal bovine serum), 100 U/mL penicillin, 100 μg/mL streptomycin and 1 mg/mL Geneticin (registered trademark) (Invitrogen) in an incubator under the condition of 5% CO2 at 37° C. and Geneticin (registered mark)-resistant cell line stably expressing S1P1 were obtained. The obtained stably S1P1-expressing cells were incubated with D-MEM liquid medium each containing 10% FBS and 0.5 mg/mL Geneticin (registered trademark) in an incubator under the condition of 5% CO2 at 37° C. The cells grown to confluence were harvested by a buffer solution containing 50 mM Tris, 2 mM EDTA (ethylmediaminetetraacetic acid) and 125 mM sodium chloride, and centrifuged at 1880×g, 4° C. for 10 minutes. After a supernatant was removed, a cell pellet was resuspended by the same buffer solution. For making cell membranes fragile, this cell suspension was frozen at −80° C. and then thawed. The cells were centrifuged at 1880×g, 4° C. for 10 minutes, and a supernatant was removed. The cell pellet was suspended by adding the same buffer solution and a fracture solution (10 mM sodium bicarbonate and 5 mM EDTA, pH 7.5) at a ratio of 2:1. The cells were fractured by subjecting the cell suspension to ultrasonication, and a cell membrane fraction was isolated by centrifugation at 1880×g, 4° C. for 10 minutes and ultracentrifugation of the supernatant at 80000×g, 4° C. for 30 minutes. A pellet of the cell membrane fraction was suspended by the fracture solution containing protease inhibitor cocktail (Roche) and stored at −80° C. until use. A protein concentration of the cell membrane fraction was determined using BCA Protein Assay Kit (Pierce) in accordance with an attached protocol.
Inhibitory activity evaluation was performed by multi-screen (registered trademark) HTS 96-well plate (Millipore) using the cell membrane fraction stably expressing S1P1 obtained by the above operation. 25 μL of assay solution (50 mM Tris, 100 mM sodium chloride, 5 mM magnesium chloride, 1 mM EDTA, 1 mM DTT (dithiothreitol), 10 μM GDP (guanosine diphosphate) and 0.5% BSA (bovine serum albumin), pH 7.4), 25 μL of test compounds solution diluted by assay solution and 25 μL of the membrane fraction (0.2 μg protein/μL) were added to each well, and the mixture was gently shaken at room temperature: for 30 minutes. Then, 25 μL of ^35S-GTP, and 25 μL of 50 nM S1P1 receptor selective agonist (1-[4-(4-phenyl-5-trifluoromethylthiophen-2-ylmethoxy)benzyl]azetidine-3-carboxylic acid, “J. Med. Chem.”, 2004, vol. 47, pp. 6662-6665, compound 18) were added to each well, respectively, and it was reacted at room temperature for 60 minutes. After the reaction, a reaction solution of each well was suction-filtered. After suction filtration, ice-colded wash solution (50 mM Tris, 100 mM sodium chloride, […] and 1 mM EDTA, pH 7.4) was added to each well, and moreover filters were washed by suction filtration. This wash procedure was performed three times. A bottom of the plate containing the filters was dried at 60° C. After drying, 30 μL of MicroScinti-40 (PerkinElmer) was added to each well, and the radioactivity adsorbed on the filter was determined by TopCount NXT (registered trademark) (PerkinElmer) after shaking for 30 minutes at room temperature. […]

In the case of `CCC(Nc1ccc(C)c(CN2CC(C(=O)O)C2)c1)c1ccc(Cl)c(C)c1` (centres unmarked) [Comparative Example 2, 1-{5-[1-(4-chloro-3-methyl-phenyl)-propylamino]-2-methyl-benzyl}-azetidine-3-carboxylic acid, reference compound], the “Number of lymphocytes (% of Vehicle) After 6 hours” value ([1]; 1 mg/kg) is reported as 39.9 % of Vehicle, the “Number of lymphocytes (% of Vehicle) After 24 hours” value ([1]; 1 mg/kg) is reported as 82.3 % of Vehicle and the “Number of lymphocytes (% of Vehicle) After 48 hours” value ([1]; 1 mg/kg) is reported as 109.6 % of Vehicle. The “Number of lymphocytes (% of Vehicle) After 6 hours” value ([1]; 10 mg/kg) was 16.8 % of Vehicle, the “Number of lymphocytes (% of Vehicle) After 24 hours” value ([1]; 10 mg/kg) was 94.0 % of Vehicle and the “Number of lymphocytes (% of Vehicle) After 48 hours” value ([1]; 10 mg/kg) was 110.3 % of Vehicle. The “time course of the number of lymphocytes in blood (in words)” value ([1]; 6 to 48 hours after administration) was “transient reduction of the number of lymphocytes in blood”.
`CCC(c1ccc(C)c(CN2CC(C(=O)O)C2)c1)N(CC)c1ccc(Cl)c(C(F)(F)F)c1` (centres unmarked) [Compound 2-45, 1-(5-{1-[(4-Chloro-3-trifluoromethylphenyl)(ethyl)amino]propyl}-2-methylbenzyl)azetidine-3-carboxylic acid] gave an IC50 [2] of 0.8 nM.
Compound `CCN(c1ccc(Cl)c(C)c1)C1CCCc2c(CN3CC(C(=O)O)C3)cccc21` (centres unmarked) [Compound 3-7] has an IC50 [2] of 12.8 nM.
`CCN(Cc1cccc(CN2CC(C(=O)O)C2)c1)c1ccc(Cl)c(C)c1` [Compound 3-1, 1-(3-{[(4-Chloro-3-methylphenyl)(ethyl)amino]methyl}benzyl)azetidine-3-carboxylic acid] was tested, and the IC50 [2] was 8.9 nM.
Compound `CCN(Cc1cccc(CN2CC(C(=O)O)C2)c1C)c1ccc(Cl)c(C)c1` [Compound 2-4] has an IC50 [2] of 3.9 nM.
For `CCN(c1ccc(Cl)c(C)c1)C(C)c1ccc(Cl)c(CN2CC(C(=O)O)C2)c1` (centres unmarked) [Compound 2-32, 1-(2-Chloro-5-{1-[(4-chloro-3-methylphenyl)(ethyl)amino]ethyl}benzyl)-azetidine-3-carboxylic acid], the IC50 [2] was 1.1 nM.
`CCN(c1ccc(Cl)c(C)c1)C1CCc2c1ccc(C)c2CN1CC(C(=O)O)C1` (centres unmarked) [Compound 2-21, 1-{1-[(4-Chloro-3-methylphenyl)(ethyl)amino]-5-methylindan-4-ylmethyl}-azetidine-3-carboxylic acid] was tested, and the IC50 [2] was 1.9 nM.
In the case of `CCN(c1ccc(Cl)c(C)c1)C(C)c1ccc(OC)c(CN2CC(C(=O)O)C2)c1` (centres unmarked) [Compound 2-30], the IC50 [2] is reported as 6.9 nM.
With `CC(c1ccc(Cl)c(CN2CC(C(=O)O)C2)c1)N(C)c1ccc(Cl)c(C(F)(F)F)c1` (centres unmarked) [Compound 2-33, 1-(2-Chloro-5-{1-[(4-chloro-3-trifluoromethylphenyl)(methyl)amino]-ethyl}benzyl)azetidine-3-carboxylic acid] the IC50 [2] was 7.8 nM.
`Cc1ccc2c(c1CN1CC(C(=O)O)C1)CCC2N(CCO)c1ccc(Cl)c(C(F)(F)F)c1` (centres unmarked) [Compound 2-39] showed an IC50 [2] of 3.4 nM.
Work on `CCCN(c1ccc(Cl)c(C)c1)C(C)c1ccc(C)c(CN2CC(C(=O)O)C2)c1` (centres unmarked) [Compound 2-14, 1-(5-{1-[(4-Chloro-3-methylphenyl)(propyl)amino]ethyl}-2-methylbenzyl)-azetidine-3-carboxylic acid] yielded an IC50 [2] of 1.7 nM.
With `Cc1ccc(C(C)N(CCO)c2ccc(Cl)c(C(F)(F)F)c2)cc1CN1CC(C(=O)O)C1` (centres unmarked) [Compound 2-37] the IC50 [2] was 8.6 nM.
Work on `CCN(c1cccc(Cl)c1)C(C)c1ccc(C)c(CN2CC(C(=O)O)C2)c1` (centres unmarked) [Compound 2-49] yielded an IC50 [2] of 0.9 nM.
`Cc1cc(N(C)Cc2cccc(CN3CC(C(=O)O)C3)c2)ccc1Cl` [Compound 1-2] showed an IC50 [2] of 7.6 nM.
In the case of `CCN(c1ccc(Cl)c(C)c1)C(C)c1cc(Cl)cc(CN2CC(C(=O)O)C2)c1` (centres unmarked) [Compound 2-29], the IC50 [2] is reported as 1.2 nM.
`CCN(c1cc(C(F)(F)F)cc(C(F)(F)F)c1)C(C)c1ccc(C)c(CN2CC(C(=O)O)C2)c1` (centres unmarked) [Compound 4-2] gave an IC50 [2] of 3.1 nM.
With `Cc1cc(N(Cc2cccc(CN3CC(C(=O)O)C3)c2)C(C)C)ccc1Cl` [Compound 3-4] the IC50 [2] was 15.3 nM.
In the case of `CCN(c1ccc(Cl)c(C)c1)C1CCc2c1ccc(OC)c2CN1CC(C(=O)O)C1` (centres unmarked) [Compound 2-18], the IC50 [2] is reported as 4.7 nM.
Compound `Cc1ccc(C(C)N(C)c2ccc(Cl)c(C(F)(F)F)c2)cc1CN1CC(C(=O)O)C1` (centres unmarked) [Compound 2-25, 1-(5-{1-[(4-Chloro-3-trifluommethylphenyl)(methyl)amino]ethyl}-2-methylbenzyl)azetidine-3-carboxylic acid] has an IC50 [2] of 6.7 nM.
`Cc1cc(N(C)C(C)c2ccc(C)c(CN3CC(C(=O)O)C3)c2)ccc1Cl` (centres unmarked) [Compound 2-13] was tested, and the IC50 [2] was 21.5 nM.
For `CCN(Cc1ccc(C)c(CN2CC(C(=O)O)C2)c1C)c1ccc(Cl)c(C)c1` [Compound 2-11], the IC50 [2] was 1.1 nM.
With `Cc1cc(NC(C)c2ccc(C)c(CN3CC(C(=O)O)C3)c2)ccc1Cl` (centres unmarked) [Comparative Example 1, 1-{5-[1-(4-Chloro-3-methylphenylamino)ethyl]-2-methylbenzyl}azetidine-3-carboxylic acid, reference compound] the IC50 [2] was 441 nM.
`CCN(c1ccc(Cl)c(C(F)(F)F)c1)C1CCc2c1ccc(C)c2CN1CC(C(=O)O)C1` (centres unmarked) [Compound 2-8, 1-{1-[(4-Chloro-3-trifluoromethylphenyl)(ethyl)amino]-5-methylindan-4-ylmethyl}azetidine-3-carboxylic acid] was tested, and the “Number of lymphocytes (% of Vehicle) After 6 hours” value ([1]; 1 mg/kg) was 15.1 % of Vehicle, the “Number of lymphocytes (% of Vehicle) After 24 hours” value ([1]; 1 mg/kg) was 34.5 % of Vehicle and the “Number of lymphocytes (% of Vehicle) After 48 hours” value ([1]; 1 mg/kg) was 87.7 % of Vehicle. For the same compound, the “Number of lymphocytes (% of Vehicle) After 6 hours” value ([1]; 10 mg/kg) was 13.7 % of Vehicle, the “Number of lymphocytes (% of Vehicle) After 24 hours” value ([1]; 10 mg/kg) was 12.3 % of Vehicle and the “Number of lymphocytes (% of Vehicle) After 48 hours” value ([1]; 10 mg/kg) was 33.4 % of Vehicle. The IC50 [2] was 2.9 nM.
Work on `CCN(c1ccc(Cl)c(C)c1)C1CCc2c(CN3CC(C(=O)O)C3)cccc21` (centres unmarked) [Compound 6-3] yielded an IC50 [2] of 2.8 nM.
Work on `CCN(c1ccc(Cl)c(C)c1)C1CCc2c(CN3CC(C(=O)O)C3)cc(C)cc21` (centres unmarked) [Compound 2-22] yielded an IC50 [2] of 5 nM.
With `CCN(c1ccc(Cl)c(C(F)(F)F)c1)C(C)c1ccc(C(F)(F)F)c(CN2CC(C(=O)O)C2)c1` (centres unmarked) [Compound 2-41, 1-(5-{1-[(4-Chloro-3-trifluoromethylphenyl)(ethyl)amino]ethyl}-2-trifluoromethylbenzyl)azetidine-3-carboxylic acid] the IC50 [2] was 1.9 nM.
